Assay [1] has as its system HCT116. The experiment in a line: AC50 cell viability (CellTiter-Glo); higher = less potent. The settings on record: 48 h. A general note: ATP-based viability assays read luminescence as a measure of living cells.
In assay [2] the test system is HCT116. The experiment in a line: efficacy (fitted maximal change in viability relative to DMSO control); higher = less cytotoxic (negative = loss of viability). The settings on record: 48 h.

Among the data in the supplement of paper PMC10290057 are AC50 cell viability and efficacy values, retold here.
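For AC50 cell viability (CellTiter-Glo) in this document: HCT116 colorectal carcinoma cells screened at five concentrations per compound, luminescent viability scaled between DMSO wells and empty wells on each plate, curves fitted per compound.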
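For efficacy (fitted maximal change in viability relative to DMSO control) in this document: Luminescence-based viability readout, five doses per compound, normalized against on-plate DMSO and empty-well controls, followed by dose-response curve fitting for every drug.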

`CNC1CCC(N(Cc2cccc(-c3ccncc3)c2)C(=O)c2sc3ccccc3c2Cl)CC1` (stereo not drawn) [SAG] came in with an AC50 cell viability in assay [1] of 16.6 µM. Further, in assay [2], the efficacy was -98.5%.

In assay [1], `CCOc1cc(C(=O)Nc2ccc(Cl)c(-c3nc4ccccc4[nH]3)c2)cc(OCC)c1OCC` [SANT-2] had an AC50 cell viability of 2.63 µM. Moreover, in assay [2], the efficacy is -37.4%.

`CN1C/C=C/CCOc2cccc(c2)-c2ccnc(n2)Nc2cccc(c2)C1` [SB-1317] came in with an AC50 cell viability in assay [1] of 0.059 µM. For the same molecule, the efficacy in assay [2] is -70.2%.

`O=C1\C=C(OC2=C1SC=C2C3=CC=C4OCCOC4=C3)\N5CCOCC5` [SF-2523] yielded an AC50 cell viability in assay [1] of 3.72 µM. Moreover, the efficacy in assay [2] was -69.9%.

In turn, `CC(C)N(CCCNC(=O)Nc1ccc(C(C)(C)C)cc1)C[C@H]1O[C@@H](n2cc(Br)c3c(N)ncnc32)[C@H](O)[C@@H]1O` [SGC-0946] displayed an AC50 cell viability in assay [1] of 20.9 µM. The efficacy in assay [2] is -95.9%.

As to `CN1CCC(CNc2ccc3ncc(-c4cccc(OC(F)(F)F)c4)n3n2)CC1` [SGI-1776], in assay [1], the AC50 cell viability was 6.61 µM. Also, the efficacy in assay [2] is -102%.

In assay [1], `Cc1c[nH]c2nc(Nc3ccc(N4CCN(C)CC4)c(F)c3)nc(-c3cccc(CC#N)c3)c12` [SGI-7079] registered an AC50 cell viability of 0.525 µM. Also, in assay [2], the efficacy was -83.9%.

As for `N#C/C(=C(/N)Sc1ccc(N)cc1)c1ccccc1C(F)(F)F` [SL-327], the AC50 cell viability in assay [1] was determined as 13.2 µM. The efficacy in assay [2] was -80.4%.

Consider `CN[C@@H](C)C(=O)N[C@H]1CCCC[C@H]2CC[C@@H](C(=O)N[C@@H](c3ccccc3)c3cn(CCCCc4ccc(CCCCn5cc([C@@H](NC(=O)[C@@H]6CC[C@@H]7CCCC[C@H](NC(=O)[C@H](C)NC)C(=O)N76)c6ccccc6)nn5)cc4)nn3)N2C1=O` [SM-164], for which the AC50 cell viability in assay [1] came to 23.5 µM. In addition, the efficacy in assay [2] is -89.2%.

For the molecule `CCC1=C2CN3C(=O)\C4=C(/C=C3/C2=NC5=CC=C(O)C=C15)[C@@](O)(CC)C(=O)OC4` [SN-38], in assay [1], the AC50 cell viability was found to be 0.0661 µM. For the same molecule, in assay [2], the efficacy is -79.2%.

With `O=C(Nc1cccc(Cl)c1)Nc1ncc(CCNc2ncnc3ccsc23)s1` [SNS-314], the AC50 cell viability in assay [1] came to 18.6 µM. Besides, the efficacy in assay [2] is -91.8%.

Regarding `C/C(=N\NC(=O)c1cccc([S+](=O)([O-])N2CCOCC2)c1)c1cc(Cl)ccc1O` [SP2509], the AC50 cell viability in assay [1] turned out to be 1.86 µM. In addition, the efficacy in assay [2] was -69.5%.

Turning to `C/C(NNC(=O)c1cccc([S+](=O)([O-])N2CCOCC2)c1)=C1\C=C(Cl)C=CC1=O` [SP-2509], the AC50 cell viability in assay [1] was found to be 2.63 µM. Also, in assay [2], the efficacy is -72%.

`COC1=CC=CC2=C1C(=NC(=N2)C3=CC=CS3)NN4C(=O)\C=C(C)/C4=O` [SPC-839] gave an AC50 cell viability in assay [1] of 0.525 µM. Also, the efficacy in assay [2] was -91.1%.

In assay [1], `OC(c1ccc(-c2ccc(CN3CCN(Cc4ccncc4)CC3)cc2)c(F)c1)(C(F)(F)F)C(F)(F)F` [SR-2211] registered an AC50 cell viability of 10.5 µM. For the same molecule, the efficacy in assay [2] was -44.3%.

Molecule `Cc1ccc(-c2ncn(-c3ccc(Nc4nccc(-c5cccc(N6CCOCC6)c5)n4)cc3)n2)cn1` [SR-3306] had an AC50 cell viability in assay [1] of 1.48 µM. Further, in assay [2], the efficacy is -85.8%.

Turning to `CCCCCNC(=O)N1CCC(CN(Cc2ccc(Cl)cc2)Cc2ccc([N+](=O)[O-])s2)C1` (stereo not drawn) [SR-9011], the AC50 cell viability in assay [1] was 20.9 µM. Moreover, the efficacy in assay [2] was -71%.

`O=C(Nc1ccccc1-c1cn2c(CN3CCNCC3)csc2n1)c1cnc2ccccc2n1` [SRT-1720]: in assay [1], the AC50 cell viability stood at 7.42 µM. Further, in assay [2], the efficacy is -83.6%.

`NC(=O)[C@H]1CCS[C@@H]2C[C@]3(CCCN3C(=O)Cc3ccc(NC(=O)COc4ccc(Cl)cc4Cl)cc3)C(=O)N12` [ST-2825] returned an AC50 cell viability in assay [1] of 10.5 µM. For the same molecule, in assay [2], the efficacy is -68.6%.

In assay [1], `O=C(Nc1nnc(-c2ccco2)o1)c1cc(-c2ccccc2)nc2ccccc12` [STX-0119] yielded an AC50 cell viability of 14.8 µM. In addition, in assay [2], the efficacy is -69.9%.

In the case of `CN(C)[S+](=O)([O-])c1ccc2c(c1)C(=Cc1cc3c([nH]1)CCCC3)C(=O)N2` [SU-6656], the AC50 cell viability in assay [1] is 0.118 µM. Moreover, the efficacy in assay [2] was -34.2%.

For `Cc1[nH]c(/C=C2\C(=O)Nc3ccc([S+](=O)([O-])N(C)c4cccc(Cl)c4)cc32)c(C)c1C(=O)N1CCN(C)CC1` [SU-MI-2], in assay [1], the AC50 cell viability was found to be 14.8 µM. The efficacy in assay [2] was -113%.

On to `CCC(C1CCC(C)C(O1)C(C)C(O)C(C)C(=O)C(CC)C2OC\3(O[C@]4(CC[C@@](C)(O4)C5CC[C@@](O)(CC)C(C)O5)C(O)\C=C3)C(C)CC2C)C([O-])=O` (stereo partly drawn) [Salinomycin], for which the AC50 cell viability in assay [1] was determined as 13.2 µM. The efficacy in assay [2] is -98.3%.

`CN1CCN(CCOc2cc(OC3CCOCC3)c3c(Nc4c(Cl)ccc5c4OCO5)ncnc3c2)CC1` [Saracatinib] yielded an AC50 cell viability in assay [1] of 18.6 µM. Moreover, the efficacy in assay [2] is -101%.
